Reference: ChEMBL document CHEMBL5260833, “An overview of quinazolines: Pharmacological significance and recent developments” (Eur J Med Chem, 2018)

What was measured:
[1] = Inhibition of Lacticaseibacillus casei TS
Thymidylate synthase = Thymidylate synthase (Homo sapiens, UniProt P04818); test: Inhibition of human TS
Rattus norvegicus [2] = test: Inhibition of AII induced mean arterial blood pressure in rat assessed as vasoconstrictor at 1 mg/kg, po; format: functional
[3] = Binding affinity to AT1 in rabbit aorta; format: tissue-based, Oryctolagus cuniculus
Rattus norvegicus [4] = test: Anticonvulsant activity in rat at 50 mg/kg, ip measured after 1 hrs by MES test relative to control; format: functional
Rattus norvegicus [5] = test: Anticonvulsant activity in PTZ induced rat at 50 mg/kg, sc measured after 2 to 4 mins relative to control; format: functional; settings: time 2-4 min
Rattus norvegicus [6] = test: Anticonvulsant activity in albino rat at 30 mg/kg, ip measured after 1 hrs by MES test; format: functional

Chain of Thymidylate synthase (P04818 whole entry): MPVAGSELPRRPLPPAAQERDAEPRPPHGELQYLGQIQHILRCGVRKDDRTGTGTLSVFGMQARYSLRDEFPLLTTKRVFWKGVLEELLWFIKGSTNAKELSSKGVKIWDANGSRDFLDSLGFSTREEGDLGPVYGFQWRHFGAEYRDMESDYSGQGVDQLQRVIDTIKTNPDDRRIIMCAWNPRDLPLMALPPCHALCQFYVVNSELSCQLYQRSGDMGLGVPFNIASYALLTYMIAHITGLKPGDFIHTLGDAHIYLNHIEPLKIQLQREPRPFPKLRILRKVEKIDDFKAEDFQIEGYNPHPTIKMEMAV

Row | SMILES | IC50 [3] [nM] | Activity (Rattus norvegicus [4]) [%] | Activity (Rattus norvegicus [5]) [%] | further results
1 | COC(=O)[C@H](Cc1ccc(O)c(O)c1)NC(=O)c1ccc(Sc2c(C)ccc3nc(N)[nH]c(=O)c23)cc1 | – | – | – | IC50 [1]: 200 nM; IC50 (Thymidylate synthase): 3 nM
2 | CCCCc1nc2ccc([C@@]3(C(=O)N4CCCCC4)C[C@H]4CCCN4O3)cc2c(=O)n1Cc1ccc(-c2ccccc2-c2nnn[nH]2)cc1 | – | – | – | Activity (Rattus norvegicus [2]): 55 mmHg
3 | CCCCc1nc2cc3ccccc3cc2c(=O)n1Cc1ccc(-c2ccccc2C(=O)O)cc1 | 10 | – | – | –
4 | CCCCc1nc2cc(Cl)ccc2c(=O)n1Cc1ccc(-c2ccccc2-c2nn[nH]n2)cc1 | ≥ 1.3 | – | – | –
5 | CCCCc1nc2ccc([C@@]3(C(=O)O)C[C@H]4CCCN4O3)cc2c(=O)n1Cc1ccc(-c2ccccc2-c2nnn[nH]2)cc1 | – | – | – | Activity (Rattus norvegicus [2]): 55 mmHg
6 | CCCc1nc2ccc(C)cc2c(=O)n1Cc1ccc(-c2ccccc2-c2nn[nH]n2)cc1 | ≥ 1.3 | – | – | –
7 | COC(=O)[C@H](Cc1ccccc1)NC(=O)c1ccc(Sc2c(C)ccc3nc(N)[nH]c(=O)c23)cc1 | – | – | – | IC50 [1]: 200 nM; IC50 (Thymidylate synthase): 3 nM
8 | CCCCc1nc2cc(OC)c(OC)cc2c(=O)n1Cc1ccc(-c2ccccc2-c2nn[nH]n2)cc1 | ≥ 1.3 | – | – | –
9 | COC(=O)[C@H](Cc1c[nH]c2ccccc12)NC(=O)c1ccc(Sc2c(C)ccc3nc(N)[nH]c(=O)c23)cc1 | – | – | – | IC50 [1]: 200 nM; IC50 (Thymidylate synthase): 3 nM
10 | Cc1ccc2nc(N)[nH]c(=O)c2c1Sc1ccc(C(=O)N[C@H](CO)c2ccccc2)cc1 | – | – | – | IC50 [1]: 200 nM; IC50 (Thymidylate synthase): 3 nM
11 | Cc1nc2ccccc2c(=O)n1NCC(=O)NNC(=S)NCC1C(=O)NC(=S)NC1=O | – | 40 | 40 | –
12 | CCCCc1nc2ccc([C@@]3(C)C[C@H]4CCCN4O3)cc2c(=O)n1Cc1ccc(-c2ccccc2-c2nn[nH]n2)cc1 | – | – | – | Activity (Rattus norvegicus [2]): 55 mmHg
13 | Cc1nc2ccc(Br)cc2c(=O)n1NCC(=O)NNC(=S)NCC1C(=O)NC(=O)NC1=O | – | 40 | 40 | –
14 | CCCCc1nc2ccc([N+](=O)[O-])cc2c(=O)n1Cc1ccc(-c2ccccc2-c2nn[nH]n2)cc1 | ≥ 1.3 | – | – | –
15 | Cc1nc2ccc(I)cc2c(=O)n1NCc1nnc(NCC2C(=O)NC(=S)NC2=O)s1 | – | 60 | 60 | –
16 | Cc1nc2ccc(I)cc2c(=O)n1NCc1nnc(N)s1 | – | 40 | 40 | –
17 | COC(=O)c1cccc([C@H](NC(=O)c2ccc(Sc3c(C)ccc4nc(N)nc(O)c34)cc2)C(=O)OC)c1 | – | – | – | IC50 [1]: 200 nM; IC50 (Thymidylate synthase): 3 nM
18 | CCCCc1nc2ccc([C@H]3C[C@@]4(C)CCCCN4O3)cc2c(=O)n1Cc1ccc(-c2ccccc2-c2nnn[nH]2)cc1 | – | – | – | Activity (Rattus norvegicus [2]): 55 mmHg
19 | COC(=O)[C@H](NC(=O)c1ccc(Sc2c(C)ccc3nc(N)[nH]c(=O)c23)cc1)c1ccccc1 | – | – | – | IC50 [1]: 200 nM; IC50 (Thymidylate synthase): 3 nM
20 | CCCCCc1nc2ccc(C)cc2c(=O)n1Cc1ccc(-c2ccccc2-c2nn[nH]n2)cc1 | ≥ 1.3 | – | – | –
21 | Cc1nc2c(Br)cc(Br)cc2c(=O)n1NCC(=O)NNC(=S)NCC1C(=O)NC(=O)NC1=O | – | 40 | 40 | –
22 | COC(=O)[C@H](Cc1ccc(N)cc1)NC(=O)c1ccc(Sc2c(C)ccc3nc(N)[nH]c(=O)c23)cc1 | – | – | – | IC50 [1]: 200 nM; IC50 (Thymidylate synthase): 3 nM
23 | CCCCc1nc2ccc([C@@]3(C)C[C@H]4CCCCN4O3)cc2c(=O)n1Cc1ccc(-c2ccccc2-c2nn[nH]n2)cc1 | – | – | – | Activity (Rattus norvegicus [2]): 55 mmHg
24 | Cc1nc2ccccc2c(=O)n1NCc1nnc(N)s1 | – | 40 | 40 | –
25 | CS(C)(=O)=O [DIMETHYL SULFONE] | 2.6 | – | – | –

Row | SMILES | IC50 [3] [nM] | Activity (Rattus norvegicus [4]) [%] | Activity (Rattus norvegicus [5]) [%] | further results
26 | COC(=O)[C@@H](NC(=O)c1ccc(Sc2c(C)ccc3nc(N)[nH]c(=O)c23)s1)c1ccccc1 | – | – | – | IC50 [1]: 200 nM; IC50 (Thymidylate synthase): 3 nM
27 | CCCCc1nc2ccc([C@@]3(CO)C[C@H]4CCCN4O3)cc2c(=O)n1Cc1ccc(-c2ccccc2-c2nnn[nH]2)cc1 | – | – | – | Activity (Rattus norvegicus [2]): 55 mmHg
28 | Cc1ccc2nc(N)nc(O)c2c1Sc1ccc(C(=O)N[C@H](C(=O)O)c2cccc(C(=O)O)c2)cc1 | – | – | – | IC50 [1]: 200 nM; IC50 (Thymidylate synthase): 3 nM
29 | CCc1nc2ccc(C)cc2c(=O)n1Cc1ccc(-c2ccccc2-c2nn[nH]n2)cc1 | ≥ 1.3 | – | – | –
30 | Cc1nc2ccccc2c(=O)n1NCC(=O)NNC(N)=S | – | 20 | 20 | inhibition in vivo at 30 mg/kg (Rattus norvegicus [6]): 30%
31 | Cc1ccc2nc(N)nc(O)c2c1Sc1ccc(C(=O)N[C@H](C(=O)O)c2ccccc2)cc1 | – | – | – | IC50 [1]: 200 nM; IC50 (Thymidylate synthase): 3 nM
32 | CCCCc1nc2ccc(N)cc2c(=O)n1Cc1ccc(-c2ccccc2-c2nn[nH]n2)cc1 | ≥ 1.3 | – | – | –
33 | CCCCc1nc2ccccc2c(=O)n1Cc1ccc(-c2ccccc2C(=O)O)cc1 | 92 | – | – | –
34 | CCCCc1nc2ccc([C@@]3(C(=O)N4CCCC4)C[C@H]4CCCN4O3)cc2c(=O)n1Cc1ccc(-c2ccccc2-c2nnn[nH]2)cc1 | – | – | – | Activity (Rattus norvegicus [2]): 55 mmHg
35 | Cc1ccc2nc(N)[nH]c(=O)c2c1Sc1ccc(C(=O)N[C@H](C)c2ccccc2)cc1 | – | – | – | IC50 [1]: 200 nM; IC50 (Thymidylate synthase): 3 nM
36 | Cc1nc2c(Br)cc(Br)cc2c(=O)n1NCC(=O)NNC(N)=S | – | 20 | 20 | –
37 | Cc1nc2ccc(Br)cc2c(=O)n1NCc1nnc(N)s1 | – | 40 | 40 | –
38 | COC(=O)[C@H](Cc1ccc(O)cc1)NC(=O)c1ccc(Sc2c(C)ccc3nc(N)[nH]c(=O)c23)cc1 | – | – | – | IC50 [1]: 200 nM; IC50 (Thymidylate synthase): 3 nM
39 | CCCCc1nc2cccc(C)c2c(=O)n1Cc1ccc(-c2ccccc2C(=O)O)cc1 | 370 | – | – | –
40 | Cc1nc2ccc(Br)cc2c(=O)n1NCc1nnc(NCC2C(=O)NC(=S)NC2=O)s1 | – | 60 | 60 | –
41 | CCCCc1nc2ccc([C@]3(C)C[C@H]4CCCN4O3)cc2c(=O)n1Cc1ccc(-c2ccccc2-c2nn[nH]n2)cc1 | – | – | – | Activity (Rattus norvegicus [2]): 55 mmHg
42 | CCCCc1nc2ccc(NC(C)=O)cc2c(=O)n1Cc1ccc(-c2ccccc2-c2nn[nH]n2)cc1 | ≥ 1.3 | – | – | –
43 | Cc1nc2c(Br)cc(Br)cc2c(=O)n1NCc1nnc(NCC2C(=O)NC(=O)NC2=O)s1 | – | 60 | 60 | –
44 | CCCCc1nc2ccc([C@H]3C[C@H]4CCCN4O3)cc2c(=O)n1Cc1ccc(-c2ccccc2-c2nnn[nH]2)cc1 | – | – | – | Activity (Rattus norvegicus [2]): 55 mmHg
45 | CCCCC(=O)Nc1ccc2nc(CCCC)n(Cc3ccc(-c4ccccc4-c4nn[nH]n4)cc3)c(=O)c2c1 | ≥ 1.3 | – | – | –
46 | CCCCc1nc2ccc(C(F)(F)F)cc2c(=O)n1Cc1ccc(-c2ccccc2-c2nn[nH]n2)cc1 | ≥ 1.3 | – | – | –
47 | Cc1nc2ccc(Br)cc2c(=O)n1NCc1nnc(NCC2C(=O)NC(=O)NC2=O)s1 | – | 60 | 60 | –
48 | CCCC(CCC)C(=O)[O-].[Na+] [VALPROATE SODIUM] | – | 80 | 80 | –
49 | CCCCc1nc2ccc([C@]3(C)C[C@H]4CC[C@H](C)N4O3)cc2c(=O)n1Cc1ccc(-c2ccccc2-c2nnn[nH]2)cc1 | – | – | – | Activity (Rattus norvegicus [2]): 55 mmHg
50 | Cc1nc2ccc(Br)cc2c(=O)n1NCC(=O)NNC(N)=S | – | 20 | 20 | inhibition in vivo at 30 mg/kg (Rattus norvegicus [6]): 30%

Row | SMILES | IC50 [3] [nM] | Activity (Rattus norvegicus [4]) [%] | Activity (Rattus norvegicus [5]) [%] | further results
51 | CCCCc1nc2ccc(C)cc2c(=O)n1Cc1ccc(-c2ccccc2C(=O)O)cc1 | 10 | – | – | –
52 | CCOC(=O)CNn1c(C)nc2ccc(Br)cc2c1=O | – | 10 | 10 | inhibition in vivo at 30 mg/kg (Rattus norvegicus [6]): 20%
53 | CCCCc1nc2ccc(F)cc2c(=O)n1Cc1ccc(-c2ccccc2-c2nn[nH]n2)cc1 | ≥ 1.3 | – | – | –
54 | Cc1ccc2nc(N)[nH]c(=O)c2c1Sc1ccc(C(=O)N[C@@H](Cc2ccccc2)C(=O)O)cc1 | – | – | – | IC50 [1]: 200 nM; IC50 (Thymidylate synthase): 3 nM
55 | CCCCc1nc2cccc(F)c2c(=O)n1Cc1ccc(-c2ccccc2-c2nn[nH]n2)cc1 | ≥ 1.3 | – | – | –
56 | CCCCc1nc2c(C)cccc2c(=O)n1Cc1ccc(-c2ccccc2C(=O)O)cc1 | 370 | – | – | –
57 | Cc1nc2ccc(I)cc2c(=O)n1NCC(=O)NNC(N)=S | – | 20 | 20 | –
58 | Cc1nc2c(Br)cc(Br)cc2c(=O)n1NCc1nnc(N)s1 | – | 40 | 40 | –
59 | O=C1N=C([O-])NC1(c1ccccc1)c1ccccc1.[Na+] [PHENYTOIN SODIUM] | – | 80 | 80 | inhibition in vivo at 30 mg/kg (Rattus norvegicus [6]): 80%
60 | Cc1nc2ccccc2c(=O)n1NCC(=O)NNC(=S)NCC1C(=O)NC(=O)NC1=O | – | 40 | 40 | –
61 | COC(=O)[C@@H](NC(=O)c1ccc(Sc2c(C)ccc3nc(N)nc(O)c23)cc1)c1ccccc1 | – | – | – | IC50 [1]: 200 nM; IC50 (Thymidylate synthase): 3 nM
62 | Cc1ccc2nc(N)nc(O)c2c1Sc1ccc(C(=O)N[C@H](C(=O)O)c2cccc(O)c2)cc1 | – | – | – | IC50 [1]: 200 nM; IC50 (Thymidylate synthase): 3 nM
63 | CCOC(=O)CNn1c(C)nc2c(Br)cc(Br)cc2c1=O | – | 10 | 10 | –
64 | Cc1nc2ccc(Br)cc2c(=O)n1NCC(=O)NNC(=S)NCC1C(=O)NC(=S)NC1=O | – | 40 | 40 | –
65 | CCCCc1nc2ccc(Cl)cc2c(=O)n1Cc1ccc(-c2ccccc2-c2nn[nH]n2)cc1 | ≥ 1.3 | – | – | –
66 | CCCCc1nc2ccc(C)cc2c(=O)n1Cc1ccc(-c2ccccc2-c2nn[nH]n2)cc1 | ≥ 1.3 | – | – | –
67 | CCCCc1nc2ccccc2c(=O)n1Cc1ccc(-c2ccccc2-c2nn[nH]n2)cc1 | ≥ 1.3 | – | – | –
68 | CCCCc1nc2ccc(OC)cc2c(=O)n1Cc1ccc(-c2ccccc2-c2nn[nH]n2)cc1 | ≥ 1.3 | – | – | –
69 | CCCCc1nc2cc(C)ccc2c(=O)n1Cc1ccc(-c2ccccc2C(=O)O)cc1 | 370 | – | – | –
70 | COC(=O)[C@@H](NC(=O)c1ccc(Sc2c(C)ccc3nc(N)nc(O)c23)cc1)c1cccc(O)c1 | – | – | – | IC50 [1]: 200 nM; IC50 (Thymidylate synthase): 3 nM
71 | CCOC(=O)CNn1c(C)nc2ccccc2c1=O | – | 10 | 10 | inhibition in vivo at 30 mg/kg (Rattus norvegicus [6]): 20%
72 | Cc1ccc2nc(N)[nH]c(=O)c2c1Sc1ccc(C(=O)Nc2cccc(C(=O)O)c2)cc1 | – | – | – | IC50 [1]: 200 nM; IC50 (Thymidylate synthase): 3 nM
73 | CCOC(=O)CNn1c(C)nc2ccc(I)cc2c1=O | – | 10 | 10 | –
74 | COC(=O)c1cccc(NC(=O)c2ccc(Sc3c(C)ccc4nc(N)[nH]c(=O)c34)cc2)c1 | – | – | – | IC50 [1]: 200 nM; IC50 (Thymidylate synthase): 3 nM
75 | CCCCc1nc2ccc(I)cc2c(=O)n1Cc1ccc(-c2ccccc2-c2nn[nH]n2)cc1 | ≥ 1.3 | – | – | –
